Numbers after ± are expanded uncertainties.
Tests used:
[1] = xn = mol fraction of the nth substance listed; details: 101.3 kPa, Liquid, Capillary tube (Ostwald / Ubbelohde) method
[2] = 101.3 kPa, Liquid, Capillary tube (Ostwald / Ubbelohde) method

Structure (SMILES): O [water] + CN(CCO)CCO
- viscosity ([1]; 313.15 K, x2 = 0): 0.656 ± 0.008 mPa·s
- viscosity ([1]; 333.15 K, x2 = 0): 0.476 ± 0.006 mPa·s
- viscosity ([1]; 353.15 K, x2 = 0): 0.358 ± 0.004 mPa·s
- viscosity ([1]; 363.15 K, x2 = 0): 0.305 ± 0.004 mPa·s

Structure (SMILES): CN(CCO)CCO [N-methyldiethanolamine]
- viscosity ([2]; 313.15 K): 34.62 ± 0.41 mPa·s
- viscosity ([2]; 333.15 K): 14.38 ± 0.17 mPa·s
- viscosity ([2]; 353.15 K): 7.082 ± 0.086 mPa·s
- viscosity ([2]; 363.15 K): 5.277 ± 0.064 mPa·s

Structure (SMILES): CN(CCO)CCO [N-methyldiethanolamine] + O
- viscosity ([1]; 313.15 K, x1 = 0.06): 1.94 ± 0.023 mPa·s
- viscosity ([1]; 313.15 K, x1 = 0.09): 3.115 ± 0.039 mPa·s
- viscosity ([1]; 313.15 K, x1 = 0.129): 5.108 ± 0.069 mPa·s
- viscosity ([1]; 313.15 K, x1 = 0.257): 15.18 ± 0.18 mPa·s
- viscosity ([1]; 313.15 K, x1 = 0.372): 24.78 ± 0.28 mPa·s
- viscosity ([1]; 313.15 K, x1 = 0.583): 34.79 ± 0.39 mPa·s
- viscosity ([1]; 313.15 K, x1 = 0.743): 35.92 ± 0.41 mPa·s
- viscosity ([1]; 313.15 K, x1 = 1): 34.62 ± 0.41 mPa·s
- viscosity ([1]; 333.15 K, x1 = 0.06): 1.202 ± 0.014 mPa·s
- viscosity ([1]; 333.15 K, x1 = 0.09): 1.709 ± 0.021 mPa·s
- viscosity ([1]; 333.15 K, x1 = 0.129): 2.703 ± 0.034 mPa·s
- viscosity ([1]; 333.15 K, x1 = 0.257): 6.7 ± 0.081 mPa·s
- viscosity ([1]; 333.15 K, x1 = 0.372): 10.24 ± 0.12 mPa·s
- viscosity ([1]; 333.15 K, x1 = 0.583): 13.74 ± 0.16 mPa·s
- viscosity ([1]; 333.15 K, x1 = 0.743): 14.49 ± 0.17 mPa·s
- viscosity ([1]; 333.15 K, x1 = 1): 14.38 ± 0.17 mPa·s
- viscosity ([1]; 353.15 K, x1 = 0.06): 0.813 ± 0.01 mPa·s
- viscosity ([1]; 353.15 K, x1 = 0.09): 1.127 ± 0.014 mPa·s
- viscosity ([1]; 353.15 K, x1 = 0.129): 1.63 ± 0.02 mPa·s
- viscosity ([1]; 353.15 K, x1 = 0.257): 3.472 ± 0.042 mPa·s
- viscosity ([1]; 353.15 K, x1 = 0.372): 4.873 ± 0.057 mPa·s
- viscosity ([1]; 353.15 K, x1 = 0.583): 6.569 ± 0.077 mPa·s
- viscosity ([1]; 353.15 K, x1 = 0.743): 7.084 ± 0.083 mPa·s
- viscosity ([1]; 353.15 K, x1 = 1): 7.082 ± 0.086 mPa·s
- viscosity ([1]; 363.15 K, x1 = 0.06): 0.687 ± 0.008 mPa·s
- viscosity ([1]; 363.15 K, x1 = 0.09): 0.871 ± 0.01 mPa·s
- viscosity ([1]; 363.15 K, x1 = 0.129): 1.205 ± 0.015 mPa·s
- viscosity ([1]; 363.15 K, x1 = 0.257): 2.606 ± 0.031 mPa·s
- viscosity ([1]; 363.15 K, x1 = 0.372): 3.611 ± 0.042 mPa·s
- viscosity ([1]; 363.15 K, x1 = 0.583): 4.749 ± 0.056 mPa·s
- viscosity ([1]; 363.15 K, x1 = 0.743): 5.278 ± 0.062 mPa·s
- viscosity ([1]; 363.15 K, x1 = 1): 5.277 ± 0.064 mPa·s
